Data: patent US20110269743A1, “PHENYLTHIOPHENYLDIHYDROBENZOTHIAZEPINE INHIBITORS OF STORE OPERATED CALCIUM RELEASE” (CalciMedica, Inc, priority 2008, published 2011)

Assays:
[1] = target: STIM1 and Orai1 in HEK293 cells (Homo sapiens, UniProt Q96D31); details: HEK293 cells coexpressing STIM1 and Orai1; cited from earlier work
JR251 or RBL cells = assay: Fluorescence-based store-operated calcium entry assay, IC50 in JR251 or RBL cells; format: cell-based; details: in either JR251 or RBL cells, or both
Method: The day prior to performing the assay, RBL-2H3 cells are plated in 50 μL of complete medium in a 384 well plate. Cells are grown at 37° C./6% CO2 overnight and grow to 50-60% confluence by the next day. On the assay day, 1.5 μM Fluo-4-AM dye (Invitrogen) in complete medium is added and incubated for 1 hour at RT. Cells are washed twice in Ca^2+-free HBSS buffer and 35 μL Ca^2+-free HBSS buffer is added to each well. 10 μL of a test compound prepared in a Ca^2+-free HBSS solution at 4.5× of the desired concentration is added to a well and incubated for 5 minutes at RT. 10 μL of thapsigargin prepared in a Ca^2+-free HBSS solution at 5.5× of the desired concentration (5.5 uM) is added to each well and incubated for an additional 25 minutes. The initial baseline fluorescence signal is measured with a FLIPR^384 (Molecular Devices) plate reader. 5 μL of 12× calcium in HBSS (12 mM) is added and changes in cellular fluorescence are measured with the FLIPR^384 plate reader. In each well, the change in the fluorescent signal as a function of time due to calcium entry into the cell is determined by calculating the difference between the fluorescent signal measured 7 seconds after calcium addition and the initial baseline fluorescence signal at time zero (t=0). This parameter is designated Upslope. The IC50 value is calculated as the concentration at which 50% of the Upslope is inhibited.
The day prior to performing the assay, Jurkat E6-1 cells are seeded at a density of 2 million cells/mL in complete medium in a T-175 flask. Cells are grown at 37° C./6% CO2 overnight. On the following day, 1.5 μM Fluo-4-AM dye (Invitrogen) in complete medium is added and incubated for 1 hour at RT. Cells are harvested, washed twice in Ca^2+-free HBSS buffer and plated in 35 μL Ca^2+-free HBSS buffer in a 384 well plate. 10 μL of a test compound prepared in a Ca^2+-free HBSS solution at 4.5× of the desired concentration is added to a well and incubated for 5 minutes at RT. 10 μL of thapsigargin prepared in a Ca^2+-free HBSS solution at 5.5× of the desired concentration (5.5 uM) is added to each well and incubated for an additional 25 minutes. The initial baseline fluorescence signal is measured with a FLIPR^384 (Molecular Devices) plate reader. 5 μL of 12× calcium in HBSS (12 mM) is added and changes in cellular fluorescence are measured with the FLIPR^384 plate reader. In each well, the change in the fluorescent signal as a function of time due to calcium entry into the cell is determined by calculating the difference between the fluorescent signal measured 7 seconds after calcium addition and the initial baseline fluorescence signal at time zero (t=0). This parameter is designated Upslope. The IC50 value is calculated as the concentration at which 50% of the Upslope is inhibited.

[2] = test system: Jurkat cells and colon cancer cells; details: cited from earlier work

Sequence of STIM1 and Orai1 in HEK293 cells (Q96D31 whole entry): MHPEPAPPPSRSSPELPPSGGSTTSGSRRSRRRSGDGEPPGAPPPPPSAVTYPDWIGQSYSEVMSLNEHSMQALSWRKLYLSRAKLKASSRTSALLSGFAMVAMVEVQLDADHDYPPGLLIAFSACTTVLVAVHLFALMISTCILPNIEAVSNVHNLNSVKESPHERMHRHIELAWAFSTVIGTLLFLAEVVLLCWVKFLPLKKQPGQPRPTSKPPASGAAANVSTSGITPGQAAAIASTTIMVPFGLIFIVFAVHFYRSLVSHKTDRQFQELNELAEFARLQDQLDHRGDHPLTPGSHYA

SMILES | IC50 (JR251 or RBL cells) | further results
NCCOB(c1ccccc1)c1ccccc1 [2-aminoethoxydiphenylborate] | – | block of store-operated Ca2+ entry [1]: completely blocked
COc1ccc(C2CC(c3cccs3)=Nc3ccccc3S2)cc1OC (centres unmarked) [(E)-2-(3,4-dimethoxyphenyl)-4-(thiophen-2-yl)-2,3-dihydrobenzo[b][1,4]thiazepine] | < 10 µM | –
FC(F)Oc1ccc(C2CC(c3ccco3)=Nc3ccccc3S2)cc1 (centres unmarked) [(E)-2-(4-(difluoromethoxy)phenyl)-4-(furan-2-yl)-2,3-dihydrobenzo[b][1,4]thiazepine] | < 10 µM | –
FC(F)Oc1ccc(C2CC(c3cccs3)=Nc3ccccc3S2)cc1 (centres unmarked) [(E)-2-(4-(difluoromethoxy)phenyl)-4-(thiophen-2-yl)-2,3-dihydrobenzo[b][1,4]thiazepine] | < 10 µM | –
Fc1ccc(C2CC(c3ccco3)=Nc3ccccc3S2)cc1 (centres unmarked) [(E)-2-(4-fluorophenyl)-4-(furan-2-yl)-2,3-dihydrobenzo[b][1,4]thiazepine] | < 10 µM | –
Fc1ccc(C2CC(c3cccs3)=Nc3ccccc3S2)cc1 (centres unmarked) [(E)-2-(4-fluorophenyl)-4-(thiophen-2-yl)-2,3-dihydrobenzo[b][1,4]thiazepine] | < 10 µM | –
FC(F)(F)c1ccc(C2CC(c3ccco3)=Nc3ccccc3S2)cc1 (centres unmarked) [(E)-4-(furan-2-yl)-2-(4-(trifluoromethyl)phenyl)-2,3-dihydrobenzo[b][1,4]thiazepine] | < 10 µM | –
COc1ccc(C2CC(c3ccco3)=Nc3ccccc3S2)cc1 (centres unmarked) [(E)-4-(furan-2-yl)-2-(4-methoxyphenyl)-2,3-dihydrobenzo[b][1,4]thiazepine] | < 10 µM | –
Cc1ccc(C2CC(c3cccs3)=Nc3ccccc3S2)cc1 (centres unmarked) [(E)-4-(thiophen-2-yl)-2-p-tolyl-2,3-dihydrobenzo[b][1,4]thiazepine] | < 10 µM | –
Cc1nnsc1C(=O)Nc1ccc(-n2nc(C(F)(F)F)cc2C(F)(F)F)cc1 [BTP-2] | – | inhibition of SOCE and proliferation [2]: inhibits SOCE and proliferation

Continued, in another order:

IC50 (JR251 or RBL cells) | SMILES | further results
< 10 µM | Clc1ccc(C2CC(c3ccco3)=Nc3ccccc3S2)c(Cl)c1 (centres unmarked) [(E)-2-(2,4-dichlorophenyl)-4-(furan-2-yl)-2,3-dihydrobenzo[b][1,4]thiazepine] | –
< 10 µM | COc1ccc(C2CC(c3ccco3)=Nc3ccccc3S2)c(OC)c1 (centres unmarked) [(E)-2-(2,4-dimethoxyphenyl)-4-(furan-2-yl)-2,3-dihydrobenzo[b][1,4]thiazepine] | –
< 10 µM | Fc1ccccc1C1CC(c2ccco2)=Nc2ccccc2S1 (centres unmarked) [(E)-2-(2-fluorophenyl)-4-(furan-2-yl)-2,3-dihydrobenzo[b][1,4]thiazepine] | –
< 10 µM | Cc1ccc(C2CC(c3ccco3)=Nc3ccccc3S2)cc1 (centres unmarked) [(E)-4-(furan-2-yl)-2-p-tolyl-2,3-dihydrobenzo[b][1,4]thiazepine] | –
